Laboratory results reported in PubChem BioAssay (NCI).
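Interpolation was linear, between the two tested concentrations surrounding the appropriate level; five concentrations were tested over 48 hours in 96-well plates. TGI marks complete inhibition of growth.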

Columns and labels:
Test in all cases: NCI tumour cell line growth inhibition, 48 h
DLD-1 colon = test system: DLD-1 colon
DMS 114 small cell lung = test system: DMS 114 small cell lung
DMS 273 small cell lung = test system: DMS 273 small cell lung
HOP-18 NSCLC = test system: HOP-18 NSCLC
LXFL 529 NSCLC = test system: LXFL 529 NSCLC
M19-MEL melanoma = test system: M19-MEL melanoma
RXF-631 renal = test system: RXF-631 renal
XF 498 CNS = test system: XF 498 CNS
P388 leukemia = test system: P388 leukemia
P388/ADR leukemia = test system: P388/ADR leukemia
SN12K1 renal = test system: SN12K1 renal

Q: What does the source list for CN=C(/N=c1\ssc(=NC)n1C)N(C)C?
A: TGI (DLD-1 colon): > 100 µM; TGI (DMS 114 small cell lung): > 100 µM; TGI (DMS 273 small cell lung): > 100 µM; TGI (HOP-18 NSCLC): > 100 µM; TGI (LXFL 529 NSCLC): > 100 µM; TGI (M19-MEL melanoma): > 100 µM; TGI (RXF-631 renal): > 100 µM; TGI (XF 498 CNS): > 100 µM

Q: Which results are given for O=C1c2c(O)cccc2-c2nn(CCNCCO)c3ccc(NCCNCCO)c1c23?
A: TGI (DLD-1 colon): > 41.3 µM; TGI (DMS 114 small cell lung): 0.178 µM; TGI (DMS 273 small cell lung): 2.54 µM; TGI (HOP-18 NSCLC): 5.41 µM; TGI (LXFL 529 NSCLC): 1.14 µM; TGI (M19-MEL melanoma): 1.15 µM; TGI (RXF-631 renal): 5.54 µM; TGI (XF 498 CNS): 0.379 µM

Q: CC1=C2C(=CO[C@H](C)[C@H]2C)C(=O)C(C(=O)O)=C1O was tested. Which TGI (DLD-1 colon) did it give?
A: 66.9 µM

Q: What about the TGI (DMS 114 small cell lung) of the same compound?
A: 30 µM

Q: And the TGI (DMS 273 small cell lung)?
A: 123 µM

Q: What about the TGI (HOP-18 NSCLC) of the same compound?
A: 57.9 µM

Q: And the TGI (M19-MEL melanoma)?
A: 79.1 µM

Q: And the TGI (P388 leukemia)?
A: 500 µM

Q: And the TGI (P388/ADR leukemia)?
A: 67.7 µM

Q: What about the TGI (SN12K1 renal) of the same compound?
A: 42 µM

Q: And the TGI (XF 498 CNS)?
A: 13.6 µM

Q: Which results are given for COc1cccc(C=O)c1[O-].[O]=[U](=[O])([OH2+])[OH2+]?
A: TGI (DLD-1 colon): > 100 µM; TGI (DMS 114 small cell lung): > 100 µM; TGI (DMS 273 small cell lung): > 100 µM; TGI (HOP-18 NSCLC): 88.9 µM; TGI (LXFL 529 NSCLC): > 100 µM; TGI (M19-MEL melanoma): > 100 µM

Q: Which TGI (DLD-1 colon) does the source give for O=C(O)c1ccccc1N=Cc1ccc(N(CCCl)CCCl)cc1 here?
A: > 100 µM

Q: What about the TGI (DMS 273 small cell lung) of the same compound?
A: > 100 µM

Q: And the TGI (HOP-18 NSCLC)?
A: > 100 µM

Q: What about the TGI (M19-MEL melanoma) of the same compound?
A: > 100 µM

Q: And the TGI (P388 leukemia)?
A: > 100 µM

Q: And the TGI (P388/ADR leukemia)?
A: > 100 µM

Q: And the TGI (SN12K1 renal)?
A: > 100 µM

Q: Cc1ccccc1-c1nc2c(C(=O)NCCN(C)C)cccc2[nH]1 was tested. Which TGI (DLD-1 colon) did it give?
A: > 100 µM

Q: And the TGI (DMS 114 small cell lung)?
A: > 100 µM

Q: What about the TGI (DMS 273 small cell lung) of the same compound?
A: > 100 µM

Q: What about the TGI (HOP-18 NSCLC) of the same compound?
A: 54.8 µM

Q: And the TGI (P388 leukemia)?
A: 44.3 µM

Q: What about the TGI (P388/ADR leukemia) of the same compound?
A: > 100 µM

Q: What about the TGI (SN12K1 renal) of the same compound?
A: > 100 µM

Q: And the TGI (XF 498 CNS)?
A: > 100 µM

Q: For Cc1cc(=O)[nH]c(NN2C(Cl)C(=O)C2c2ccc([N+](=O)[O-])cc2)n1 (stereo not drawn), which TGI (DMS 114 small cell lung) is on record?
A: 28.7 µM

Q: What about the TGI (DMS 273 small cell lung) of the same compound?
A: 22.7 µM

Q: And the TGI (HOP-18 NSCLC)?
A: 23.9 µM

Q: And the TGI (LXFL 529 NSCLC)?
A: 20.8 µM

Q: And the TGI (M19-MEL melanoma)?
A: 17.3 µM

Q: How did the TGI (DLD-1 colon) turn out when COc1cccc(N[C@@H]2c3cc4c(cc3C(c3cc(OC)c(O)c(OC)c3)[C@H]3C(=O)OCC32)OCO4)c1 (stereo partly drawn) was run?
A: 8.35 µM

Q: And the TGI (DMS 114 small cell lung)?
A: 4.77 µM

Q: What about the TGI (DMS 273 small cell lung) of the same compound?
A: 2.44 µM

Q: And the TGI (HOP-18 NSCLC)?
A: 21.7 µM

Q: And the TGI (M19-MEL melanoma)?
A: > 59.7 µM

Q: What about the TGI (P388 leukemia) of the same compound?
A: 0.385 µM

Q: What about the TGI (P388/ADR leukemia) of the same compound?
A: 0.984 µM

Q: And the TGI (SN12K1 renal)?
A: 9.55 µM

Q: What about the TGI (XF 498 CNS) of the same compound?
A: 23.9 µM

Q: With CN(C)CCCNc1ccc2nnn3c4ccc(O)cc4c(=O)c1c23 as the compound, how does the TGI (DLD-1 colon) read?
A: 18.1 µM

Q: And the TGI (DMS 114 small cell lung)?
A: 23.1 µM

Q: And the TGI (HOP-18 NSCLC)?
A: 29.1 µM

Q: What about the TGI (LXFL 529 NSCLC) of the same compound?
A: 20.1 µM

Q: And the TGI (M19-MEL melanoma)?
A: 25.6 µM

Q: NCc1cccc(O)c1O was tested. Which TGI (DLD-1 colon) did it give?
A: > 100 µM

Q: What about the TGI (DMS 114 small cell lung) of the same compound?
A: > 100 µM

Q: And the TGI (DMS 273 small cell lung)?
A: > 100 µM

Q: And the TGI (HOP-18 NSCLC)?
A: > 100 µM

Q: And the TGI (LXFL 529 NSCLC)?
A: > 100 µM

Q: And the TGI (M19-MEL melanoma)?
A: > 100 µM

Q: And the TGI (RXF-631 renal)?
A: > 100 µM

Q: What about the TGI (XF 498 CNS) of the same compound?
A: > 100 µM
